Data on seven compounds can be found in patent US11680073B2, “Anticancer indenes, indanes, azaindenes, azaindanes, pharmaceutical compositions and uses” (ADT PHARMACEUTICALS, LLC, priority 2018, dated 2023).

Experiment [1] deals with cells expressing mutant Ras. The following applies: cited from earlier work.
Experiment [2] deals with HCT-116, a highly Ras-driven line expressing mutant Ras. Description: Tumor cell growth inhibition, CellTiter-Glo ATP luminescence assay, HCT-116. The format is cell-based, human. The following applies: for IC50: HCT-116, 72 h, human colon tumor cells, mutant Ras, 3-day treatment, ten-fold serial dilutions, read-out: micromolar IC50 for HCT-116; for HT-29/HCT-116 Ras Inhibitory Selectivity Index: ratio IC50 HT-29 / IC50 HCT-116, numbers greater than one indicate Ras selectivity. As for the experimental part: (§1) Human cancer cell lines are obtained from the American Type Culture Collection (ATCC). Cells are cultured using standard methods in RPMI-1640 growth medium supplemented with 5% fetal bovine serum (FBS). CellTiter-Glo ATP cell growth assay reagents are obtained from Promega and used according to the manufacturer's protocol. Cells are plated at a density of 5,000 cells per well in 96-well microplates or 1,250 cells per well in 384-well plates, then allowed to attach for at least 4 h. Test compounds are dissolved in dimethyl sulfoxide (DMSO), and this working stock is further diluted in growth medium for addition to cell cultures. Serial dilutions of the test compound are prepared in growth medium containing an equal amount of DMSO not exceeding 0.2% final concentration. Each compound concentration is tested in at least 3 separate samples per cell line. At the end of a 3-day treatment period, growth inhibition is analyzed using a bioluminescent assay of ATP concentration (Promega CellTiter-Glo) according to the manufacturer's protocol. Resulting luminescence is measured using the luminescence cartridge of the Molecular Devices Spectramax Paradigm microplate reader. Relative growth inhibition for each sample is determined by comparison with the values obtained for vehicle treated control samples. Growth inhibition values are plotted with the GraphPad Prism5 software using the 4-parameter logistic fit to obtain IC50 values, which corresponds to the growth inhibitory potency of the compound.
(§2) This selected example illustrates the use of well-established human colon tumor cell lines with widely divergent Ras activation status to determine tumor cell growth inhibitory activity (IC50 values) and Ras selectivity values for some selected exemplary compounds of the present invention. Cell lines thus employed in this example are HCT-116, a highly Ras-driven line expressing mutant Ras, and HT-29, a non-Ras-driven line expressing wild-type, non-mutated Ras. Cells are plated at 5000 cells/well in 96-well plates, ten-fold serial dilutions of compounds are tested, each tested concentration in at least 3 separate samples per cell line, and viable cell numbers are measured using the Cell Titer Glo ATP luminescence assay (Promega). […] FIGS. 5-7 provide examples of full data sets from which numerical values, including Ras selectivity indices, can be calculated; data sets are shown for selected exemplary compounds 2090, 2096 and 2183. […]
In general terms: In ATP-based viability assays light output follows the ATP content of the culture.

In experiment [3] the test system is HT-29, a non-Ras-driven line expressing wild-type, non-mutated Ras. Briefly: Tumor cell growth inhibition, CellTiter-Glo ATP luminescence assay, HT-29. Type of experiment: cell-based. The following applies: HT-29, 72 h, human colon tumor cells, 3-day treatment, ten-fold serial dilutions, read-out: micromolar IC50 for HT-29. As for the experimental part: as §1, §2

Broadly, the IC50 is the concentration needed to halve the response being measured. With `Cc1onc(C(=O)N2CCN(C(c3ccc(Cl)cc3)c3ccc(Cl)cc3)CC2)c1[N+](=O)[O-]` [ML210], in experiment [1] (cells expressing mutant Ras, read-out: IC50, growth inhibition of cells expressing mutant Ras), the IC50 is 0.071 µM. Moreover, the “selectivity versus cells lacking oncogenic Ras” value in experiment [1] (versus cells lacking oncogenic Ras) is reported as 4 fold.
On to `COc1cc(/C=C2/C(C)=C(CC(=O)NCc3cccnc3)c3cc(F)ccc32)cc(OC)c1B(O)O` [compound 1736, (Z)-(4-((5-fluoro-2-methyl-3-(2-oxo-2-((pyridin-3-ylmethyl)amino)ethyl)-1H-inden-1-ylidene)methyl)-2,6-dimethoxyphenyl)boronic acid], for which the IC50 in experiment [2] stood at 5.05 µM; in experiment [3], 5.59 µM. For the same compound, the “HT-29/HCT-116 Ras Inhibitory Selectivity Index” value in experiment [2] stood at 1.11.
The matching figures for `COc1cc(CC2c3ccc(F)cc3C(CC(=O)NCc3ccccc3)C2C)cc(OC)c1O` (centres unmarked) [compound 1796, N-benzyl-2-(6-fluoro-3-(4-hydroxy-3,5-dimethoxybenzyl)-2-methyl-2,3-dihydro-1H-inden-1-yl)acetamide]: 0.212 µM, 8.03 µM and 38.
In the same order, the values of `COc1cc(/C=C2/C(C)=C(CNC(=O)c3ccco3)c3cc(F)ccc32)cc(OC)c1O` [compound 2090, (Z)—N-((5-fluoro-1-(4-hydroxy-3,5-dimethoxybenzylidene)-2-methyl-1H-inden-3-yl)methyl)furan-2-carboxamide] are 0.3 µM, 13 µM and 43.
Take `COc1cc(/C=C2/C(C)=C(CNC(=O)Cc3cccnc3)c3cc(F)ccc32)cc(OC)c1O` [compound 2096, (Z)—N-((5-fluoro-1-(4-hydroxy-3,5-dimethoxybenzylidene)-2-methyl-1H-inden-3-yl)methyl)-2-(pyridin-3-yl)acetamide]: the IC50 stood at 0.033 µM in experiment [2] and 9 µM in experiment [3]. In addition, the “HT-29/HCT-116 Ras Inhibitory Selectivity Index” value in experiment [2] came out at 273.
For the compound `COc1cc(/C=C2/C(C)=C(CNC(=O)c3cn[nH]c3)c3cc(F)ccc32)cc(OC)c1O` [compound 2183, (Z)—N-((5-fluoro-1-(4-hydroxy-3,5-dimethoxybenzylidene)-2-methyl-1H-inden-3-yl)methyl)-1H-pyrazole-4-carboxamide], in experiment [2], the IC50 came out at 0.42 µM and the “HT-29/HCT-116 Ras Inhibitory Selectivity Index” value stood at 22. Further, the IC50 in experiment [3] is 9.28 µM.
The matching figures for `COc1cc(/C=C2/C(C)=C(CC(=O)NCc3cccnc3)c3cc(F)ccc32)cc(OC)c1B1OC(C)(C)C(C)(C)O1` [compound 2200, (Z)-2-(1-(3,5-dimethoxy-4-(4,4,5,5-tetramethyl-1,3,2-dioxaborolan-2-yl)benzylidene)-5-fluoro-2-methyl-1H-inden-3-yl)-N-(pyridin-3-ylmethyl)acetamide]: 6.18 µM, 1.08 and 6.65 µM.
